Data reported in ChEMBL document CHEMBL2385059, “3-Hydroxyquinolin-2(1H)-ones As Inhibitors of Influenza A Endonuclease” (ACS Med Chem Lett, 2013).

Key:
[1] = Inhibition of H1N1 Influenza A endonuclease after 1 hr by fluorescence assay; design: species or system Influenza A virus
[2] = system: MDCK; test: Cytotoxicity against dog MDCK cells after 4 days by MTT assay; assay type: cell-based; details: Canis lupus familiaris, 96 h
[3] = system: HEK293; test: Cytotoxicity against HEK293 cells after 4 days by MTT assay; assay type: cell-based; details: Homo sapiens, HEK293, 96 h

| Compound | IC50 [1] | IC50 [2] | IC50 [3] |
| --- | --- | --- | --- |
| Cc1c(O)c(=O)[nH]c2ccccc12 | > 100 µM |  |  |
| O=c1[nH]c2ccccc2c(-c2ccccc2)c1O | > 20 µM |  |  |
| O=c1[nH]c2cc(Br)ccc2cc1O | 7.6 µM | > 10 µM | > 10 µM |
| O=c1[nH]c2c(-c3ccc(F)cc3)cccc2cc1O | 4.7 µM |  |  |
| O=c1[nH]c2cccc(-c3ccc(F)cc3)c2cc1O | 3.3 µM |  |  |
| O=c1[nH]c2ccc(-c3ccc(F)cc3)cc2cc1O | 0.5 µM |  |  |
| Cc1c(O)c(=O)[nH]c2cc(-c3ccc(F)cc3)ccc12 | 13 µM |  |  |
| O=c1[nH]c2cccc(Br)c2cc1O | 12 µM | > 10 µM | > 10 µM |
| O=c1[nH]c2cc(-c3ccc(F)cc3)ccc2cc1O | 0.5 µM |  |  |
| Oc1nc2ccccc2c(Br)c1O | 53 µM |  |  |
| O=c1[nH]c2ccccc2c(-c2ccc(F)cc2)c1O | 11 µM |  |  |
| O=c1[nH]c2ccc(Br)cc2cc1O | 7.4 µM | > 10 µM | > 10 µM |
| O=c1[nH]c2c(Br)cccc2cc1O | 11 µM | > 10 µM | > 10 µM |
| O=c1[nH]c2cc(-c3ccc(F)cc3)ccc2c(Br)c1O | 1.1 µM |  |  |
| O=c1[nH]c2cc(-c3ccc(F)cc3)ccc2c(-c2ccccc2)c1O | 2 µM |  |  |
